Assay results: patent US6774109B2, “Inhibition of amylin release” (Societe de Conseils de Recherches et d'Applications …, priority 1995, dated 2004)
Read-outs that look alike come from different tables or passages of the source. Non-standard residues stand in square brackets, D forms with d. Residues, ends and D or L forms follow the SMILES beside them. *: point of attachment. X1 = O=C(CN1CCN(CCO)CC1)*

Columns and labels:
rat SSTR-5 [1] = molecular target: T1, rat SSTR-5 (Rattus norvegicus, UniProt P30938); assay: Rat SSTR-5 binding assay ([125I-Tyr11]somatostatin-14, rat olfactory bulb membranes)
T1 construct: Crude membranes were prepared by homogenization of rat olfactory bulb cells; tissue Zivic-Miller Laboratory, Inc; host or cells: rat olfactory bulb
T1 sequence (P30938 1-363): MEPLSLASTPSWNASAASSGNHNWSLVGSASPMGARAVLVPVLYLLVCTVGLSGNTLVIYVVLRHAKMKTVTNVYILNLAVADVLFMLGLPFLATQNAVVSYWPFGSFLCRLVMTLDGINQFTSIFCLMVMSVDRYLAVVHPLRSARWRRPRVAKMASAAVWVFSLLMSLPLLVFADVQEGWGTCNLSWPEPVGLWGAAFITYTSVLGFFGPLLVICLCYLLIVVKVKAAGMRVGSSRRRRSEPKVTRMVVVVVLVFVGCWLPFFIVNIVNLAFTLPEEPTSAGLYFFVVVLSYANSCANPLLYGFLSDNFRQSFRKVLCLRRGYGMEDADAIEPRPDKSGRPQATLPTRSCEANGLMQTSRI
Description: (§1) Crude membranes were prepared by homogenization of rat olfactory bulb cells (Zivic-Miller Laboratory, Inc., Zellenople, Pa.) in 20 ml of ice-cold 50 mM Tris-HCl with a POLYTRON homogenizer (setting 6, 15 sec). Buffer was added to obtain a final volume of 40 ml, and the homogenate was centrifuged in a Sorval SS-34 rotor at 39,000 g for 10 min at 0-4° C. The resulting supernatant was decanted and discarded. The pellet was rehomogenized in ice-cold buffer, diluted, and centrifuged as before. The final pellet was resuspended in the 10 mM Tris HCl and held on ice for the receptor binding assay.
(§2) The final assay volume was 0.3 ml. The incubations were terminated by rapid filtration through GF/C filters (pre-soaked in 0.3% polyethylenimine for 30 min) using a Brandel filtration manifold. Each tube and filter were then washed three times with 5 ml aliquots of ice-cold buffer.

rat SSTR-5 [2] = assay: as above; settings: rat SSTR-2 Ki / rat SSTR-5 Ki
Description: as §1, §2

human SSTR-2 = human SSTR-2 (Homo sapiens, UniProt P30874); assay: Human SSTR-2 binding assay (transfected CHO-K1 cells)
human SSTR-2, sequence (P30874 whole entry): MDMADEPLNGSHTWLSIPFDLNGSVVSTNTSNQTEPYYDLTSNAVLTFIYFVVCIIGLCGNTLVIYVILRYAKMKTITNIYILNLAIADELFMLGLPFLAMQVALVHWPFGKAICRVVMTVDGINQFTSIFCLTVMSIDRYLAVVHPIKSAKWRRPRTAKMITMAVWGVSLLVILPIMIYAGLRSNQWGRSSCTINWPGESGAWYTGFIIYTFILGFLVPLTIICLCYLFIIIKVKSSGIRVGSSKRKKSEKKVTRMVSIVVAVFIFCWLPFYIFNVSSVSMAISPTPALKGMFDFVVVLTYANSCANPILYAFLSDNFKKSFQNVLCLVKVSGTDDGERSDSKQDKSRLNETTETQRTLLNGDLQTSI
Description: CHO-K1 (ovary, Chinese hamster) cells were obtained from the American Type Culture Collection, Rockville, Md. […] The cells were grown and maintained in Ham's F12 media (Gibco BRL, Grand Island, N.Y.) supplemented with 10% fetal bovine serum under standard tissue culture conditions.
For transfection, the cells were seeded at a density 1×10^6/60 cm^2 plate (Baxter Scientific Products, McGaw Park, Ill.). DNA mediated transfection was carried out using the calcium phosphate co-precipitation method (Ausubel, et al., Current Protocols in Molecular Biology, John Wiley & Sons, 1987). The plasmid pRSV-neo (ATCC; ATCC No. 37198) was included as a selectable marker at 1/10 the concentration of the expression plasmid. CHO-K1 clonal cell lines that have stably inherited the transfected DNA were selected for growth in Ham's F12 media containing 10% fetal bovine serum and 0.5 mg/ml of G418 (Sigma Chemical Co., St. Louis, Mo.). The cells were ring-cloned and expanded in the same media for analysis.

rat SSTR-2 = molecular target: T2, rat SSTR-2 (Rattus norvegicus, UniProt P30680); assay: Rat SSTR-2 binding assay ([125I-Tyr]MK-678, AR42J cell membranes)
T2 construct: Crude membranes were prepared by homogenizing AR42J cells; host or cells: AR42J rat pancreatic acinar tumor cells
T2 sequence (P30680 whole entry): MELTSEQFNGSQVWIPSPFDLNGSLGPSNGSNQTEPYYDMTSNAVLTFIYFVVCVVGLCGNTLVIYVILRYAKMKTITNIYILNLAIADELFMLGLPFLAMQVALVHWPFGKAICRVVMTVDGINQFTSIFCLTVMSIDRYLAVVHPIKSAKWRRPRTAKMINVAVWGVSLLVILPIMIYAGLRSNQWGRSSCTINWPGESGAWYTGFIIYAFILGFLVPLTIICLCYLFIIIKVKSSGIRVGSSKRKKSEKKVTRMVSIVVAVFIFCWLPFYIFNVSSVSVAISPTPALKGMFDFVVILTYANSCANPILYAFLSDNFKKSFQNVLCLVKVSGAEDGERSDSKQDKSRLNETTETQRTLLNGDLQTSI
Description: Crude membranes were prepared by homogenizing AR42J cells (ATCC, Rockville, Md.; ATCC No. CRL1992) in 20 ml of ice-cold 50 mM Tris-HCl (Buffer A) with a POLYTRON homogenizer (Brinkmann Instruments, Westbury, N.Y.) at setting 6, for 15 sec. Additional Buffer A was added to obtain a final volume of 40 ml, and the homogenate was centrifuged in a Sorval SS-34 rotor (DuPont, Newtown, Conn.) at 39,000 g for 10 min at 0-4° C. The resulting supernatant was decanted and discarded. The pellet was rehomogenized in ice-cold Buffer A, diluted, and centrifuged as before. The final pellet was resuspended in the 10 mM Tris HCl and held on ice for the receptor binding assay.
Aliquots of the membrane preparation were incubated for 90 min at 25° C. with 0.05 nM [^125I-Tyr]MK-678 (2000 Ci/mmol) in 50 mM HEPES (pH 7.4) containing a test peptide of various concentrations (e.g., 10^−11 to 10^−6 M), 10 mg/ml bovine serum albumin (fraction V) (Sigma Chemical Co., St. Louis, Mo.), MgCl2 (5 mM), Trasylol (200 KIU/ml), bacitracin (0.02 mg/ml), and phenylmethyl-sulphonyl fluoride (0.02 mg/ml). The final assay volume was 0.3 ml. The incubations were terminated by rapid filtration through GF/C filters (pre-soaked in 0.3% polyethylenimine for 30 min) using a filtration manifold (Brandel, Gaithersburg, Md.).

human SSTR-5 = molecular target: T3, human SSTR-5 (Homo sapiens, UniProt P35346); assay: Human SSTR-5 binding assay (transfected CHO-K1 cells); settings: for SSTR-2/SSTR-5 (ratio of Ki's): human SSTR-2 Ki / human SSTR-5 Ki
T3 construct: expressed in transfected cells
T3 sequence (P35346 whole entry): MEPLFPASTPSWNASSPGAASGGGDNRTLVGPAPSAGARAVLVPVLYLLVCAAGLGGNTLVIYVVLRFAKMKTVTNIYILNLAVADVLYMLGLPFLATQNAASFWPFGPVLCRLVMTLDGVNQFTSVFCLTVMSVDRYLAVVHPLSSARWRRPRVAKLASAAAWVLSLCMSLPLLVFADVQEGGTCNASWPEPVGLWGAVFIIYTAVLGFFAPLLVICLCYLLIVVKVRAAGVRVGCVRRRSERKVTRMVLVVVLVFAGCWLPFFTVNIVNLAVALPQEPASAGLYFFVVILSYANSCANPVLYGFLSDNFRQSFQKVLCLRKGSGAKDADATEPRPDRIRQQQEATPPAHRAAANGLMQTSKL
Text: The human SSTR-5 cDNA clone has been described in the literature. See Panetta, et al., Mol Pharmacol., 45:417-427 (1994); O'Carroll, et al., Mol Pharmacol, 46:291-298 (1994); Yamada, et al., Biochem. Biophys. Res. Commun., 195:844 (1993) [FIG. 1 depicts the DNA sequence of the human SSTR-5.] Using a sense 5′-oligonucleotide primer, immediately preceeding the start codon (residue 30-50), and an antisense 3′-oligonucleotide primer, immediately preceeding the stop codon (residues 1180-1200), a 1170 base pair fragment comprising the full-length coding sequence of the receptor was obtained by standard Reverse-transcription PCR. See Yamada, et al., Biochem. Biophys. Res. Commun., 195:844 (1993) [FIG. 1 depicts the DNA sequence of the human SSTR-5]; Innis, et al., PCR Protocols, A Guide to Methods and Applications, Academic Press, 1990. The identity of the cDNA fragment was verified by DNA sequencing using the dideoxy-chain termination method [Sanger, et al., Proc Natl Acad Sci USA., 74:5463 (1977)] with the Sequenase kit (United States Biochemicals, Arlington Heights, Ill.).
The human SSTR-5 cDNA fragment was inserted into a mammalian expression vector, pCMV to generate the expression plasmid pCMV-human SSTR-5 by blunt-end ligation.
Membranes from the stably transfected cell line were used in the rat SSTR-5 binding protocol described above.

rat Pancreas cells = assay: Amylin release inhibition assay using rat pancreas cells (isolated perfused pancreas); assay type: cell-based; settings: 16.7 mM glucose, 10 nM test compound
Description: Sprague-Dawley rats (male, 200-300 g) (Harlan-Olac, Bicester, Oxon, UK) were anaesthetized with sodium pentobarbitone (60 mg/kg). […] The pancreases were perfused, as described in Dunmore, et al., J. Endocrinol., 1993, 137, 375-381, with modified Krebs-Ringer bicarbonate buffer containing 3% dextran T40 (Pharmacia, Milton Keynes, Bucks, UK) and 1% high purity bovine serum albumin (Sigma, Poole, Dorset, UK). After an initial 15-min period to allow for stabilization, the isolated pancreases were perfused at sequential 10 min. intervals, at a rate of 4.5-5.0 ml/min, with the following buffer compositions: 1) Buffer 1: Krebs-Ringer bicarbonate buffer containing 5.6 mM glucose (to examine baseline amylin secretion); 2) Buffer 2: Krebs-Ringer bicarbonate buffer containing 16.7 mM glucose (to examine high glucose stimulated secretion); 3) Buffer 3: Krebs-Ringer bicarbonate buffer containing 16.7 mM glucose in the presence of 10 nM of test compound (to examine the activity of test compounds on high glucose stimulated amylin secretion); and 4) Buffer 2: Krebs-Ringer bicarbonate buffer containing 16.7 mM glucose (to re-examine high glucose stimulated amylin secretion in order to assess the reversibility of the activity of the test compounds).
Fractions of the perfusate were collected on ice every minute in the presence of 400 KIU/ml aprotinin (Bayer, Hayward's Heath, W. Sussex, UK). Fractions were stored at −20° C. until assay. Perfusates collected were divided into 3×1.5 ml aliquots and assayed for amylin by radioimmunoassay as described in Dunmore, et al., J. Endocrinol., 1993, 137:375. Amylin was assayed using reagents supplied by Peninsula Laboratories Ltd. (St. Helens, Merseyside, UK). These reagents include ^125I-labelled amylin, rabbit anti-rat amylin antibody, and rat amylin. Bound amylin was precipitated using goat anti-rabbit second antibody—coupled cellulose (Sac-Cal, IDS, Boldon, Tyneawear, UK).

[3] = rat, AR42J cell membranes, radioligand [125I-Tyr]MK-678 0.05 nM, read-out: Ki SSTR-2

Row | Molecule | Ki (rat SSTR-5 [1]; read-out: Ki SSTR-5) | SSTR-2/SSTR-5 (ratio of Ki's) (rat SSTR-5 [2]) | Ki (human SSTR-2) | Ki (rat SSTR-2; [3]) | Ki (human SSTR-5) | SSTR-2/SSTR-5 (ratio of Ki's) (human SSTR-5) | Ki (human SSTR-5; human receptor in CHO-K1 cells, LC 0.05 nM, LEC 0.18 nM, read-out: Ki SSTR-5) | Ki (rat SSTR-5 [1]) | Ki (rat SSTR-2) | effect on glucose-induced amylin secretion (in words) (rat Pancreas cells) | decrease in glucose stimulated amylin secretion (rat Pancreas cells)
1 | C[C@@H](O)[C@H](NC(=O)[C@H](Cc1ccccc1)NC(=O)[C@@H](NC(=O)[C@H](CCCCN)NC(=O)[C@@H](Cc1c[nH]c2ccccc12)NC(=O)[C@H](Cc1ccccc1)NC(=O)[C@H](Cc1ccccc1)NC(=O)[C@H](N)Cc1ccccc1)[C@@H](C)O)C(=O)O [Analog I, H-D-Phe-Phe-Phe-D-Trp-Lys-Thr-Phe-Thr-OH] (H-[dF]FF[dW]KTFT-OH) | 3.57 nM | 10.4 | 14.2 nM | 37.2 nM | 12.4 nM | 1.14 | – | – | – | – | –
2 | C[C@@H](O)[C@H](NC(=O)[C@H](Cc1ccccc1)NC(=O)[C@@H](NC(=O)[C@H](CCCCN)NC(=O)[C@@H](Cc1c[nH]c2ccccc12)NC(=O)[C@H](Cc1ccccc1)NC(=O)[C@H](Cc1ccccc1)NC(=O)[C@@H](Cc1ccccc1)NC(=O)CN1CCN(CCO)CC1)[C@@H](C)O)C(N)=O [Analog II] (X1-[dF]FF[dW]KTFT-NH2) | 5.38 nM | – | 4.15 nM | 305 nM | – | – | 1.29 nM | – | – | – | –
3 | CC(C)[C@@H]1NC(=O)[C@H](CCCCN)NC(=O)[C@@H](Cc2c[nH]c3ccccc23)NC(=O)[C@H](Cc2ccc(O)cc2)NC(=O)[C@@H](NC(=O)[C@H](N)Cc2ccc3ccccc3c2)CSSC[C@@H](C(=O)N[C@H](C(N)=O)[C@@H](C)O)NC1=O [BIM-23014, H-D-P-Nal-Cys-Tyr-D-Trp-Lys-Val-Cys-Ser-NH2, reference compound] | – | – | 1.09 nM | – | – | – | – | 64.8 nM | 0.34 nM | no effect | –
4 | C[C@@H](O)[C@H](NC(=O)[C@H](Cc1ccccc1)NC(=O)[C@@H](NC(=O)[C@H](CCCCN)NC(=O)[C@@H](Cc1c[nH]c2ccccc12)NC(=O)[C@H](Cc1ccccc1)NC(=O)[C@H](Cc1ccccc1)NC(=O)[C@H](N)Cc1ccccc1)[C@@H](C)O)C(N)=O [BIM-23052, H-D-Phe-Phe-Phe-D-Trp-Lys-Thr-Phe-Thr-NH2] (H-[dF]FF[dW]KTFT-NH2) | 3.16 nM | 2.54 | 14.1 nM | – | – | 11.5 | – | – | 8.04 nM | – | 78%
5 | C[C@@H](O)[C@@H]1NC(=O)[C@H](CCCCN)NC(=O)[C@@H](Cc2c[nH]c3ccccc23)NC(=O)[C@H](Cc2ccccc2)NC(=O)[C@@H](NC(=O)[C@H](N)Cc2ccccc2)CSSC[C@@H](C(=O)N[C@H](CO)[C@@H](C)O)NC1=O [SMS 201-995, H-D-Phe-Cys-Phe-D-Trp-Lys-Thr-Cys-Threoninol, reference compound] | – | – | – | – | – | – | – | 9.14 nM | – | – | –
6 | Somatostatin-14 [reference compound] | – | 0.34 | – | – | – | 0.20 | – | – | – | inhibited glucose-induced amylin secretion | –
